Patent US9376424B2, “Methods for treating post traumatic stress disorder” (AZEVAN PHARMACEUTICALS, INC., priority 2010, dated 2016)

Molecular target: T1, V1b receptor (Homo sapiens, UniProt P47901)
T1 construct: expressed in transfected cells; host or cells: CHO-K1 (ATCC), vector PCI-neo
T1 sequence (P47901 1-424): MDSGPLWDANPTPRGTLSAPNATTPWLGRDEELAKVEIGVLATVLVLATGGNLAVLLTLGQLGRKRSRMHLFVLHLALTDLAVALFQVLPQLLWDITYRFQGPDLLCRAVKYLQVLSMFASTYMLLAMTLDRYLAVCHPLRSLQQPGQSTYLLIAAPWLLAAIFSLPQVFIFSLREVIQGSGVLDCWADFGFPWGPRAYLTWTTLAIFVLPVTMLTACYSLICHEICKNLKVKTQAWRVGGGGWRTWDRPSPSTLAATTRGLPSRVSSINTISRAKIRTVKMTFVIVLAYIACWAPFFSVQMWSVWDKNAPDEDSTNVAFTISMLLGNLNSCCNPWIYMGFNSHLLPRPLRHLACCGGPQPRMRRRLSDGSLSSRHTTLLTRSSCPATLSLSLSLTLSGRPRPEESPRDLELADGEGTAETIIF
Assay: Human or rat vasopressin V1b cell-based receptor binding assay
Conditions: selectivity table; read-out: inhibition data (Ki, nM), Receptor V1b
Excerpt: Human vasopression V1b receptor-expressing cells. Human vasopressin receptor 1b (hV1b) cDNA (see, Lolait et al., “Extrapituitary expression of the rat V1b vasopressin receptor gene” Proc. Natl. Acad. Sci. USA. 92:6783-7 (1995); de Keyzer et al., “Cloning and characterization of the human V3(V1b) pituitary vasopressin receptor” FEBS Lett. 356:215-20 (1994); Sugimoto et al., “Molecular cloning and functional expression of a cDNA encoding the human V1b vasopressin receptor” J. Biol. Chem. 269:27088-92 (1994)) was inserted into a mammalian cell expression vector PCI-neo (Promega) at EcoR1 site. The recombinant plasmid carrying hV1b cDNA was identified from transformed E. Coli clones and used for the transfection of Chinese hamster ovary cell (CHO-K1, ATCC). Two micrograms of hV1b receptor DNA was introduced into 10^5 CHO cells cultured in 6-well plate, using Fugene-6 mediated transfection technique (Boehringer Mannheim). Twenty-four hrs post transfection, Cells were then cultured under selection of G-418 (0.25 mg/ml) supplemented to the culture medium. Three days later, limited dilution was carried out to obtain single cell clones in 96-well plates. […]
Human or rat vasopression V1b cell-based receptor binding assay. […] Samples were counted in a liquid scintillation counter (Beckman LS3801). IC50 and Ki values were calculated using Prism Curve fitting software. […]

CN(Cc1cccc(C(F)(F)F)c1)C(=O)[C@@H](CC(=O)N1CCC(N2CCCCC2)CC1)N1C(=O)[C@@H](N2C(=O)OC[C@@H]2c2ccccc2)[C@H]1C=Cc1ccccc1 [Example 225, 2(R)-[[4-(Piperidinyl)piperidinyl]carbonylmethyl]-2-[3(S)-(4(S)-phenyloxazolidin-2-on-3-yl)-4(R)-(2-styryl)azetidin-2-on-1-yl]acetic acid N-methyl-N-(3-trifluoromethylbenzyl)amide]
Ki: > 1000 nM
